Experimental findings from US11685761B2, “Cyclic di-nucleotide compounds as sting agonists” (Merck Sharp & Dohme Corp., priority 2017, dated 2023) are described below.

The test system of experiment [1] is IFN-β secretion from THP1 cells. Put plainly: IFN-β secretion in THP1 cell culture (5 h). The format is cell-based, human. As to conditions: Homo sapiens, THP1 cells, 5 h incubation, compound at 30 μM, 30 uM cGAMP = 100%, read-out: % Effect at 30 μM relative to 2′3′-cGAMP. The protocol:
The ability of compounds to stimulate the secretion of interferon-beta from THP1 cells was measured using a human IFN-β AlphaLISA kit (Perkin Elmer, Cat. No. AL265F). The basic protocol is as follows:
The cell viability and count was ascertained using a Beckman Coulter V-Cell XR cell counter. The cell suspension was centrifuged at 200×g for 5 min at RT. Cells were resuspended to a density of 0.8×10^6/mL in 37° C. assay medium. Subsequent liquid transfers were performed using either a Matrix electronic multichannel pipette or an Agilent Bravo Automated Liquid Handling Platform.
The assay was started by dispensing 40 μL of the previously prepared cell suspension into the wells of the plate containing compounds. After 5 h incubation at 37° C., 5% CO2 in a humidified atmosphere, the plate of cells and compounds was centrifuged at 200×g for 5 min at RT. […] To these supernatant-containing wells was added 10 μL of 5× Anti-Analyte Acceptor beads (50 μg/mL of AlphaLISA HiBlock Buffer) and incubated for 30 min at RT while shaking on an orbital plate shaker. To each well was added 10 μL of 5× Biotinylated Antibody Anti-analyte (5 nM in AlphaLISA HiBlock Buffer) and incubated on an orbital plate shaker for 60 min at RT or overnight at 4° C. To each well was added 25 μL of 2× SA-Donor beads (80 μg/mL in AlphaLISA HiBlock Buffer) and incubated for 30-45 min at RT in the dark while shaking on an orbital plate shaker. The plate was then read on a Perkin Elmer Envision (λex680 nm, λem=570 nm). The percent effect of the AlphaLISA signal at each compound concentration was calculated based on 30 uM cGAMP positive controls and 0.3% DMSO negative controls. The plot of percent effect versus the log of compound concentration was fit with a 4-parameter concentration response equation to calculate EC50 values.
Compounds of the disclosure were evaluated for IFN-β secretion in THP1 cell culture as described above.

Another experiment deals with T1, full-length HAQ STING (Homo sapiens, UniProt Q86WV6, G230A/H232R/R293Q/R71H).
T1 construct: made in house; host or cells: Trichoplusia ni (Hi-Five) insect cells, baculovirus generated in Sf21; crude membranes
T1 sequence (Q86WV6 with tags, fused parts or gaps R71H/G230A/H232R/R293Q): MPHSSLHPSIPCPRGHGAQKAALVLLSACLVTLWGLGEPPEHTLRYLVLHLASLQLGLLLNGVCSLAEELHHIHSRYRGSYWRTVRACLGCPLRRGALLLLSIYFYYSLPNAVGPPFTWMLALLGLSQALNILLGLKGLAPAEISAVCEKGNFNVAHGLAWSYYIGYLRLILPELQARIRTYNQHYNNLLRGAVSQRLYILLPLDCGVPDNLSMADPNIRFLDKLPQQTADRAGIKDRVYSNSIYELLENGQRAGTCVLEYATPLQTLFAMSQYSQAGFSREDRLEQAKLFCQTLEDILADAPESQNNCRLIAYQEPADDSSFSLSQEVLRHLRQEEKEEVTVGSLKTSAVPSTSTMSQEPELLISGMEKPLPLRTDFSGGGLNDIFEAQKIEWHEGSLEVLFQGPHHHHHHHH
The experiment in a line: 3H-cGAMP filtration binding assay (HAQ STING). As to conditions: competition with tritiated cGAMP ligand; T. ni cell membranes overexpressing full-length HAQ STING. The source says: The ability of compounds to bind STING is quantified by the ability to compete with tritiated cGAMP ligand for human STING receptor membrane using a radioactive filter-binding assay. The binding assay employs STING receptor obtained from Hi-Five cell membranes overexpressing full-length HAQ STING prepared in-house and tritiated cGAMP ligand also purified in-house.
The ability of compounds to bind STING is quantified by their ability to compete with tritiated cGAMP ligand for human STING receptor membrane using a radioactive filter-binding assay. The binding assay employs STING receptor obtained from Trichoplusia ni cell membranes (T. ni; Expression Systems, cat #94-002F, www.expressionsystems.com) overexpressing full-length HAQ STING and tritiated cGAMP ligand.
The basic HAQ STING filtration assay protocol is as follows:
The compounds were serially titrated by the Hamilton STARPlus CORE in a 96-well plate (Greiner, #651201) using a 1:3 ten-point dose response format. […] 148 uL of prepared membrane was then manually added to each well of a 96-well deep-well polypropylene plate (Fisher Scientific, #12-566-121). Following membrane addition, 2 uL of either titrated test compound, DMSO control (Sigma #276855), or cold cGAMP control was added to the appropriate wells using a BIOMEK FX. Compound and membrane then preincubated for 60 min at RT to allow compound binding to equilibrate. Following equilibration, 8 nM of [^3H] c-GAMP ligand was prepared by diluting into assay buffer, and 50 uL of this working stock was then manually added to each well of the assay plate. Plates were then incubated at RT for 60 min, and the contents of each assay plate were then filtered through a 96-well GF/B filter plate (PerkinElmer, #6005250) using a TOMTEC MACH III Cell Harvester equipped with 20 mM HEPES buffer (Fisher Scientific, #BP299500). The filter plates were then dried at 55° C. for 30 min using a pressurized oven before 30 uL of ULTIMA GOLD F scintillate was added to each well. Tritium levels for each reaction well were then measured using a PerkinElmer TopCount plate reader.
After normalization to controls, the percent activity for each compound concentration was calculated by measuring the amount of remaining radioactivity. The plot of percent activity versus the log of compound concentration was fit with a 4-parameter dose response equation to calculate EC50 values.

Read-outs that look alike come from different tables or passages of the source.

As usually defined, the EC50 is the concentration that produces a half-maximal response. A low value points to a more potent agent. As to `Nc1ncnc2c1ncn2[C@@H]1S[C@@H]2COP(=O)(S)OC3[C@H](n4cnc5c(=O)n6cc[nH]c6nc54)O[C@H](COP(=O)(S)OC2C1O)[C@H]3F` (stereo in doubt) [Example 17, 3-[(5R,7R,8R,12aR,14R,15S,15aR,16R)-14-(6-amino-9H-purin-9-yl)-16-fluoro-15-hydroxy-2,10-dioxido-2,10-disulfanyloctahydro-12H-5,8-methanothieno[3,2-l][1,3,6,9,11,2,10]pentaoxadiphosphacyclotetradecin-7-yl]-3,5-dihydro-9H-imidazo[1,2-a]purin-9-one], the activation at 30 µM in experiment [1] (THP-1, 5 h) stood at 122%. The same molecule returned an EC50 on full-length HAQ STING of 3 nM.
As for `Nc1ncnc2c1ncn2[C@@H]1O[C@@]23CO[C@@H]1[C@@H]2OP(=O)(S)OC[C@H]1O[C@@H](n2ccc(=O)n4ccnc24)[C@H](OP(=O)(S)OC3)[C@@H]1O` (stereo partly drawn) [Example 6, 8-[(5R,7R,8R,12aR,14R,15R,15aS,18R)-14-(6-amino-9H-purin-9-yl)-18-hydroxy-2,10-dioxido-2,10-disulfanylhexahydro-14H-15,12a-(epoxymethano)-5,8-methanofuro[3,2-l] [1,3,6,9,11,2,10]pentaoxadiphosphacyclotetradecin-7(12H)-yl]imidazo[1,2-a]pyrimidin-5(8H)-one], the activation at 30 µM in experiment [1] (THP-1, 5 h) was found to be 145%. Besides, the EC50 on full-length HAQ STING amounted to 28 nM.
On to `Nc1ncnn2c([C@H]3C[C@@H]4O[P@@](=O)(S)OC[C@H]5O[C@@H](n6ccc(=O)n7ccnc67)[C@H](O[P@](=O)(S)OC[C@H]4O3)[C@@H]5O)cnc12` [Example 7, 8-[(2S,5R,7R,8R,10R,12aR,14R,15aS,16R)-14-(4-aminoimidazo[2,1-f][1,2,4]triazin-7-yl)-16-hydroxy-2,10-dioxido-2,10-disulfanyl-octahydro-12H-5,8-methanofuro[3,2-l][1,3,6,9,11,2,10]pentaoxadiphosphacyclotetradecin-7-yl]imidazo [1,2-a]pyrimidin-5(8H)-one], for which, in experiment [1] (THP-1, 5 h), the activation at 30 µM is 140%. This molecule came in with an EC50 at full-length HAQ STING of 2 nM.
The corresponding values for `Nc1ccnc2c1nnn2[C@H]1C[C@@H]2OP(=O)(S)OC[C@H]3O[C@@H](n4ccc(=O)n5ccnc45)[C@H](OP(=O)(S)OC[C@H]2O1)[C@@H]3O` (stereo partly drawn) [Example 18, 8-[(5R,7R,8R,12aR,14R,15aS,16R)-14-(7-amino-3H-[1,2,3]triazolo[4,5-b]pyridin-3-yl)-16-hydroxy-2,10-dioxido-2,10-disulfanyloctahydro-12H-5,8-methanofuro[3,2-l][1,3,6,9,11,2,10]pentaoxadiphosphacyclotetradecin-7-yl]imidazo[1,2-a]pyrimidin-5(8H)-one] are 124% and 126 nM.
The corresponding values for `Nc1ncnc2c1nnn2[C@@H]1O[C@@H]2COP(=O)(S)O[C@@H]3C[C@@H](COP(=O)(S)O[C@H]2[C@@H]1F)O[C@H]3n1cnc2c(=O)n3cc[nH]c3nc21` (stereo partly drawn) [Example 28, 3-[(5S,7R,8R,12aR,14R,15S,15aR)-14-(7-amino-3H-[1,2,3]triazolo[4,5-d]pyrimidin-3-yl)-15-fluoro-2,10-dioxido-2,10-disulfanyloctahydro-12H-5,8-methanofuro[3,2-l] [1,3,6,9,11,2,10]pentaoxadiphosphacyclotetradecin-7-yl]-3,5-dihydro-9H-imidazo[1,2-a]purin-9-one] are 143% and 41 nM.
Take `O=c1ccn([C@@H]2O[C@@H]3COP(=O)(S)O[C@@H]4[C@H](O)[C@@H](COP(=O)(S)O[C@H]3[C@H]2O)O[C@H]4n2ccc(=O)n3ccnc23)c2nccn12` (stereo partly drawn) [Example 30, 8,8′-[(5R,7R,8R,12aR,14R,15R,15aS,16R)-15,16-dihydroxy-2,10-dioxido-2,10-disulfanyloctahydro-12H-5,8-methanofuro[3,2-l][1,3,6,9,11,2,10]pentaoxadiphosphacyclo-tetradecine-7,14-diyl]bisimidazo[1,2-a]pyrimidin-5(8H)-one]: the activation at 30 µM in experiment [1] (THP-1) was 127%. Further, the EC50 at full-length HAQ STING worked out at 37 nM.
